# Assay results: patent US8937089B2, “Synergistic mixtures of anthranilamide invertebrate pest control agents” (priority 2004, dated 2015)
# Read-outs that look alike come from different tables or passages of the source.
# How the values were obtained:
# Experiment in all cases: whole plant or invertebrate
# Type in all cases: in vivo
# [1] = tested on: cotton melon aphid (Aphis gossypii Glover)
# Procedure: (§1) Test compounds were formulated using a solution containing 10% acetone, 90% water and 300 ppm X-77® Spreader Lo-Foam Formula non-ionic surfactant containing alkylarylpolyoxyethylene, free fatty acids, glycols and 2-propanol (Loveland Industries, Inc.) to provide the desired concentration in ppm. Formulated test solutions were then applied in 1 mL volumes through a SUJ2 atomizer nozzle with 1/8 JJ custom body (Spraying Systems Co.) positioned 1.27 cm (0.5 inches) above the top of each test unit.
# (§2) For evaluating control of cotton melon aphid (Aphis gossypii Glover) through contact and/or systemic means, each test unit consisted of a small open container with a 6- to 7-day-old cotton plant inside. This was pre-infested by placing on a leaf of the test plant 30 to 40 aphids on a piece of leaf excised from a culture plant (cut-leaf method). The larvae moved onto the test plant as the leaf piece desiccated. After pre-infestation, the soil of the test unit was covered with a layer of sand.
# (§3) Test compounds were formulated and sprayed as described for Test A. The applications were replicated three times. After spraying of the formulated test compounds, each test unit was allowed to dry for 1 hour and then a black, screened cap was placed on top. The test units were held for 6 days in a growth chamber at 19-21° C. and 50-70% relative humidity.
# [2] = tested on: silverleaf whitefly (Bemisia argentifolii Bellows and Perring); settings: for mortality at 1000 ppm: rate 1000 ppm
# Description: For evaluating control of silverleaf whitefly (Bemisia argentifolii Bellows and Perring) through contact and/or systemic means, each test unit consisted of a small open container with a 12- to 14-day-old cotton plant inside. This was pre-infested by placing test units into cages infested with adult whiteflies so that oviposition on the cotton leaves could occur. The adults were removed from the plants with an air-blast nozzle, and the test units were capped. The test units were then stored 2 to 3 days before spraying.
# as §1
# The results for all experimental compositions in this test were replicated three times. After spraying of the formulated test composition, each test unit was allowed to dry for 1 hour and the cap removed. The test units were held for 13 days in a growth chamber at 28° C. and 50-70% relative humidity.
# [3] = tested on: western flower thrip (Frankliniella occidentalis Pergande); settings: for mortality at 1000 ppm: rate 1000 ppm
# Procedure: as §1
# For evaluating control of the western flower thrip (Frankliniella occidentalis Pergande) through contact and/or systemic means, each test unit consisted of a small open container with a 5- to 7-day-old bean (var. Soleil) plant inside.
# Test solutions were formulated and sprayed with 3 replications as described for Test A. After spraying, the test units were allowed to dry for 1 hour, 22 to 27 adult thrips were added to each unit and then a black, screened cap was placed on top. The test units were held for 7 days at 25° C. and 45-55% relative humidity.
# [4] = tested on: potato leafhopper (Empoasca fabae Harris)
# Procedure: as §1
# […] White sand was added to the top of the soil, and one of the primary leaves was excised prior to application. Test compounds were formulated and sprayed with 3 replications as described for Test A. After spraying, the test units were allowed to dry for 1 hour before they were infested with 5 potato leafhoppers (18- to 21-day-old adults). A black, screened cap was placed on the top of each container. The test units were held for 6 days in a growth chamber at 19-21° C. and 50-70% relative humidity.
# [5] = tested on: green peach aphid (Myzus persicae Sulzer); settings: for mortality at 100 ppm: rate 100 ppm; for mortality at 1000 ppm: rate 1000 ppm
# Procedure: as §1
# as §2, with “green peach” for “cotton melon”, “(Myzus persicae Sulzer)” for “(Aphis gossypii Glover)”, “12-” for “6-”, “15-day-old radish” for “7-day-old cotton”
# as §3, with “described in” for “described for”, “Test A,” for “Test A. The applications were”, “test compound,” for “test compounds,”
# [6] = tested on: corn planthopper (Peregrines maidis)
# Procedure: as §1
# For evaluating control of corn planthopper (Peregrines maidis) through contact and/or systemic means, each test unit consisted of a small open cylindrical container with a 3- to 4-day-old corn (maize) plant (spike) inside. White sand was added to the top of the soil prior to application. Test compounds were formulated and sprayed with 3 replications as described for Test A. After spraying, the test units were allowed to dry for 1 hour before they were post-infested with 10 to 20 corn planthoppers (18- to 20-day-old nymphs) by sprinkling them onto the sand with a salt shaker. A black, screened cap was placed on the top of each container. The test units were held for 6 days in a growth chamber at 19-21° C. and 50-70% relative humidity.
# [7] = Bemisia argentifolii, in Gossypium hirsutum, Table 2B, read-out: % mortality (obs)
# [8] = Frankliniella occidentalis, 168 h, rate 100 ppm, single compound, spray, 7 days, read-out: % mortality (obs)
# [9] = Frankliniella occidentalis, 168 h, single compound, spray, 7 days, read-out: % mortality (obs)
# [10] = Myzus persicae, in Raphanus sativus, Green Peach Aphid, read-out: % mortality (obs)
compound,measurement,setting,value
CCOP(=S)(OCC)Oc1nc(Cl)c(Cl)cc1Cl [Chlorpyrifos],mortality at 1 ppm,"[1]; Aphis gossypii, rate 1 ppm, read-out: % mortality (obs)",26%
same,mortality at 5 ppm,"[1]; Aphis gossypii, rate 5 ppm, read-out: % mortality (obs)",14%
same,mortality at 50 ppm,"[1]; Aphis gossypii, rate 50 ppm, read-out: % mortality (obs)",13%
same,mortality at 500 ppm,"[2]; Bemisia argentifolii, in Gossypium hirsutum, Table 2B, rate 500 ppm, read-out: % mortality (obs)",0%
same,mortality at 1000 ppm,[2]; [7],0%
same,mortality at 2000 ppm,"[2]; Bemisia argentifolii, in Gossypium hirsutum, Table 2B, rate 2000 ppm, read-out: % mortality (obs)",0%
same,mortality at 10 ppm,"[3]; Frankliniella occidentalis, 168 h, rate 10 ppm, single compound, spray, 7 days, read-out: % mortality (obs)",20%
same,mortality at 100 ppm,[3]; [8],10%
same,mortality at 1000 ppm,[3]; [9],10%
same,mortality at 10 ppm,"[4]; Empoasca fabae, rate 10 ppm, alone, read-out: % mortality (obs)",13%
same,mortality at 100 ppm,"[4]; Empoasca fabae, rate 100 ppm, alone, read-out: % mortality (obs)",0%
same,mortality at 1000 ppm,"[4]; Empoasca fabae, rate 1000 ppm, alone, read-out: % mortality (obs)",7%
same,mortality at 10 ppm,"[5]; Myzus persicae, in Raphanus sativus, Green Peach Aphid, rate 10 ppm, read-out: % mortality (obs)",5%
same,mortality at 100 ppm,[5]; [10],18%
same,mortality at 1000 ppm,[5]; [10],9%
same,mortality at 0.1 ppm,"[6]; Corn Plant Hopper, rate 0.1 ppm, read-out: % mortality (obs)",46%
same,mortality at 0.2 ppm,"[6]; Corn Plant Hopper, rate 0.2 ppm, read-out: % mortality (obs)",24%
same,mortality at 0.3 ppm,"[6]; Corn Plant Hopper, rate 0.3 ppm, read-out: % mortality (obs)",19%
Thiacloprid,% mortality (obs),[1]; rate 0.3 ppm,50%
same,% mortality (obs),[1]; rate 1.5 ppm,100%
same,% mortality (obs),[1]; rate 6 ppm,100%
same,% mortality (obs),"[2]; Table 2B, rate 15 ppm",40%
same,% mortality (obs),"[2]; Table 2B, rate 25 ppm",83%
same,% mortality (obs),"[2]; Table 2B, rate 35 ppm",61%
same,% mortality (obs),"[3]; rate 1 ppm, single compound, spray, 7 days",20%
same,% mortality (obs),"[3]; rate 100 ppm, single compound, spray, 7 days",30%
same,% mortality (obs),"[3]; rate 3000 ppm, single compound, spray, 7 days",40%
same,% mortality (obs),"[4]; rate 0.2 ppm, alone",73%
same,% mortality (obs),"[4]; rate 0.5 ppm, alone",93%
same,% mortality (obs),"[4]; rate 1.5 ppm, alone",80%
same,% mortality (obs),"[5]; Green Peach Aphid, rate 0.2 ppm",13%
same,% mortality (obs),"[5]; Green Peach Aphid, rate 0.3 ppm",68%
same,% mortality (obs),"[5]; Green Peach Aphid, rate 0.4 ppm",42%
same,% mortality (obs),"[6]; Corn Plant Hopper, rate 0.3 ppm",6%
same,% mortality (obs),"[6]; Corn Plant Hopper, rate 3 ppm",100%
same,% mortality (obs),"[6]; Corn Plant Hopper, rate 30 ppm",100%
O=[N+]([O-])NC1=NCCN1Cc1ccc(Cl)nc1 [Imidacloprid],mortality at 0.05 ppm,"[1]; Aphis gossypii, Table 6A, Imidacloprid 0.05 ppm, read-out: % Mortality (observed)",12%
same,mortality at 0.3 ppm,"[1]; Aphis gossypii, Table 6A, Imidacloprid 0.3 ppm, read-out: % Mortality (observed)",10%
same,mortality at 2.1 ppm,"[1]; Aphis gossypii, Table 6A, Imidacloprid 2.1 ppm, read-out: % Mortality (observed)",40%
same,mortality at 10 ppm,"[2]; Bemisia argentifolii, in Gossypium hirsutum, Table 2A, Imidacloprid 10 ppm, read-out: % Mortality (observed)",1%
same,mortality at 22 ppm,"[2]; Bemisia argentifolii, in Gossypium hirsutum, Table 2A, Imidacloprid 22 ppm, read-out: % Mortality (observed)",2%
same,mortality at 48 ppm,"[2]; Bemisia argentifolii, in Gossypium hirsutum, Table 2A, Imidacloprid 48 ppm, read-out: % Mortality (observed)",25%
same,mortality at 11 ppm,"[3]; Frankliniella occidentalis, Table 3A, Imidacloprid 11 ppm, read-out: % Mortality (observed)",20%
same,mortality at 77 ppm,"[3]; Frankliniella occidentalis, Table 3A, Imidacloprid 77 ppm, read-out: % Mortality (observed)",37%
same,mortality at 561 ppm,"[3]; Frankliniella occidentalis, Table 3A, Imidacloprid 561 ppm, read-out: % Mortality (observed)",90%
same,mortality at 0.2 ppm,"[4]; Empoasca fabae, Table 4A, Imidacloprid 0.2 ppm, read-out: % Mortality (observed)",20%
same,mortality at 0.4 ppm,"[4]; Empoasca fabae, Table 4A, Imidacloprid 0.4 ppm, read-out: % Mortality (observed)",0%
same,mortality at 1 ppm,"[4]; Empoasca fabae, Table 4A, Imidacloprid 1 ppm, read-out: % Mortality (observed)",20%
same,mortality at 0.08 ppm,"[5]; Myzus persicae, in Raphanus sativus, Table 7A, Imidacloprid 0.08 ppm, read-out: % Mortality (observed)",4%
same,mortality at 0.15 ppm,"[5]; Myzus persicae, in Raphanus sativus, Table 7A, Imidacloprid 0.15 ppm, read-out: % Mortality (observed)",12%
same,mortality at 0.26 ppm,"[5]; Myzus persicae, in Raphanus sativus, Table 7A, Imidacloprid 0.26 ppm, read-out: % Mortality (observed)",50%
same,mortality at 0.1 ppm,"[6]; Table 5A, Imidacloprid 0.1 ppm, read-out: % Mortality (observed)",27%
same,mortality at 0.3 ppm,"[6]; Table 5A, Imidacloprid 0.3 ppm, read-out: % Mortality (observed)",37%
same,mortality at 1 ppm,"[6]; Table 5A, Imidacloprid 1 ppm, read-out: % Mortality (observed)",60%
Pyridalyl,% mortality (obs),[1]; rate 1 ppm,22%
same,% mortality (obs),[1]; rate 1.5 ppm,34%
same,% mortality (obs),[1]; rate 2 ppm,32%
same,% mortality (obs),"[2]; Table 2B, rate 10 ppm",0%
same,% mortality (obs),"[2]; Table 2B, rate 25 ppm",0%
same,% mortality (obs),"[2]; Table 2B, rate 100 ppm",0%
same,% mortality (obs),"[3]; rate 5 ppm, single compound, spray, 7 days",30%
same,% mortality (obs),"[3]; rate 50 ppm, single compound, spray, 7 days",60%
same,% mortality (obs),"[3]; rate 500 ppm, single compound, spray, 7 days",100%
same,% mortality (obs),"[4]; rate 0.5 ppm, alone",13%
same,% mortality (obs),"[4]; rate 5 ppm, alone",13%
same,% mortality (obs),"[4]; rate 50 ppm, alone",7%
same,% mortality (obs),"[5]; Green Peach Aphid, rate 1 ppm",18%
same,% mortality (obs),"[5]; Green Peach Aphid, rate 10 ppm",8%
same,% mortality (obs),"[5]; Green Peach Aphid, rate 20 ppm",3%
same,% mortality (obs),"[6]; Corn Plant Hopper, rate 10 ppm",2%
same,% mortality (obs),"[6]; Corn Plant Hopper, rate 100 ppm",6%
same,% mortality (obs),"[6]; Corn Plant Hopper, rate 1000 ppm",11%
CCc1ccc(C(=O)NN(C(=O)c2cc(C)cc(C)c2)C(C)(C)C)cc1 [Tebufenozide],mortality at 0.5 ppm,"[1]; Aphis gossypii, rate 0.5 ppm, read-out: % mortality (obs)",21%
same,mortality at 1.5 ppm,"[1]; Aphis gossypii, rate 1.5 ppm, read-out: % mortality (obs)",37%
same,mortality at 3 ppm,"[1]; Aphis gossypii, rate 3 ppm, read-out: % mortality (obs)",22%
same,mortality at 100 ppm,"[2]; Bemisia argentifolii, in Gossypium hirsutum, Table 2B, rate 100 ppm, read-out: % mortality (obs)",2%
same,mortality at 1000 ppm,[2]; [7],6%
same,mortality at 3000 ppm,"[2]; Bemisia argentifolii, in Gossypium hirsutum, Table 2B, rate 3000 ppm, read-out: % mortality (obs)",7%
same,mortality at 100 ppm,[3]; [8],70%
same,mortality at 1000 ppm,[3]; [9],60%
same,mortality at 3000 ppm,"[3]; Frankliniella occidentalis, 168 h, rate 3000 ppm, single compound, spray, 7 days, read-out: % mortality (obs)",60%
same,mortality at 3 ppm,"[4]; Empoasca fabae, rate 3 ppm, alone, read-out: % mortality (obs)",40%
same,mortality at 4 ppm,"[4]; Empoasca fabae, rate 4 ppm, alone, read-out: % mortality (obs)",27%
same,mortality at 5 ppm,"[4]; Empoasca fabae, rate 5 ppm, alone, read-out: % mortality (obs)",20%
same,mortality at 100 ppm,[5]; [10],8%
same,mortality at 1000 ppm,[5]; [10],7%
same,mortality at 3000 ppm,"[5]; Myzus persicae, in Raphanus sativus, Green Peach Aphid, rate 3000 ppm, read-out: % mortality (obs)",9%
same,mortality at 100 ppm,"[6]; Corn Plant Hopper, rate 100 ppm, read-out: % mortality (obs)",12%
same,mortality at 1000 ppm,"[6]; Corn Plant Hopper, rate 1000 ppm, read-out: % mortality (obs)",16%
same,mortality at 3000 ppm,"[6]; Corn Plant Hopper, rate 3000 ppm, read-out: % mortality (obs)",12%
